Entries after “also recorded” stand apart in the source; their conditions may differ.
How the values were obtained:
hERG potassium channel = molecular target: T1, hERG potassium channel (Homo sapiens, UniProt Q12809); assay: hERG ion channel inhibition (Fluxor potassium assay, CHO cells); assay type: cell-based; conditions: blockade of the K+ channel current at 10 μM
T1 construct: expressed in transfected cells; host or cells: CHO cell line
Experimental: CYP1A2 and CYP2C19, 7- methoxy- 4(trifluoromethyl)coumarin for CYP2C9, 3-[2-(N,N- diethyl -N-methylammonium)ethyl]-7- methoxy- 4- methylcoumarin for CYP2D6, and 7- benzyloxytrifluoromethylcoumarin for CYP3A4), to give the final assay concentrations in a reaction volume of 200 µL. Reactions were terminated after specific time for each cytochrome by addition of STOP solution (0.5 M 80:20 ACN/TrisHCl). […]
hERG ion channel inhibition. The assay was carried out using a CHO cell line transfected with the hERG potassium channel. C ells were seeded (2500 cells/well) 72 h before the assay on a 384-well black plate (Greiner 781091). Cell s were maintained at 37 °C in a 5% CO2 atmosphere for 24 h and at 30 °C in a 5% CO 2 atmosphere for 48 h. hERG activity was measured by using the FluxorTM Potassium Ion Chanel Assay Kit (Thermo Fisher F10016). Medium was replaced for 20 µL of loading buffer and cells were incubated for 60 min at 25 °C, protected from direct light. After incubation, l oading buffer was replaced for a ssay buffer and compounds were incubated for 30 min at 25 °C. After this time, 5 µL of stimulus buffer was added to each well and fluorescence was read (λ ex = 490 nm, λem = 525 nm) every second after the establishment of a baseline line using an imaging plate reader system (FDSS7000EX, Hamamatsu®). The fluorescent signal was […]

stability in mouse serum = assay type: in vitro ADME; conditions: remaining compound after 4 h
CYP2C9 = molecular target: T2, CYP2C9 (Homo sapiens, UniProt P11712); assay: cytochrome inhibition, fluorescence assay, CYP2C9; assay type: in vitro ADME
T2 construct: host or cells: insect cell microsomes
T2 sequence (P11712 whole entry): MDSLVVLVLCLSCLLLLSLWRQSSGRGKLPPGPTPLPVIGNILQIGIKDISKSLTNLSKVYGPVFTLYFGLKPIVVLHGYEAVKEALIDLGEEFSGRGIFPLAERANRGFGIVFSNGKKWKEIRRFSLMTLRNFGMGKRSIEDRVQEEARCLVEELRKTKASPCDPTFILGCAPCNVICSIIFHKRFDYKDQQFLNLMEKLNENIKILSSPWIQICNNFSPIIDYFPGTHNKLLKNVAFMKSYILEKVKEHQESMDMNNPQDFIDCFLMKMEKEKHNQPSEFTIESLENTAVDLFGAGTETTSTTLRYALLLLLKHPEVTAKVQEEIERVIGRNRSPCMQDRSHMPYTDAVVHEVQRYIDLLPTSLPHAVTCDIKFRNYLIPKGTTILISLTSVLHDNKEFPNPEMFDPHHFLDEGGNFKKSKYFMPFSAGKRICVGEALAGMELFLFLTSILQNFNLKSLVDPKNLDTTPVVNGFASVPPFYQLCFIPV
Experimental: (§1) Cytochrome inhibition. The objective of this study was to screen the potential of test […]
(§2) performed using recombinant isoforms CYP1A2, CYP2C9, CYP2C19, CYP2D6, and CYP3A4, and probe substrates with fluorescent detection.
(§3) Assays were conducted in a 200 µL volume in 96-well microtiter plates (COSTAR 3915).
(§4) Addition of cofactor-buffer mixture (KH2PO4 buffer, 1.3 mM NADP, 3.3 mM MgCl2, 3.3 mM glucose -6- phosphate, and 0.4 U/mL glucose -6- phosphate dehydrogenase), supersomes control, standard inhibitors (furafyline, tranylzypromine, ketoconazole, sulfaphenazole, and quinidine from Sigma Aldrich) and test compound to the plate was carried out by a liquid handling station (Zephyr Caliper). The plate was then pre-incubated at 37 °C for 5 min, and the reaction was initiated by the addition of the pr e - warmed enzyme/substrate (E/S) mix. […]
(§5) Fluorescence per well was measured using a fluorescence plate reader (Tecan Infinite M1000 pro) and percentage of inhibition was calculated. hERG ion channel inhibition. […]

CYP2C19 = molecular target: T3, CYP2C19 (Homo sapiens, UniProt P33261); assay: cytochrome inhibition, fluorescence assay, CYP2C19; assay type: in vitro ADME
T3 construct: host or cells: insect cell microsomes
T3 sequence (P33261 whole entry): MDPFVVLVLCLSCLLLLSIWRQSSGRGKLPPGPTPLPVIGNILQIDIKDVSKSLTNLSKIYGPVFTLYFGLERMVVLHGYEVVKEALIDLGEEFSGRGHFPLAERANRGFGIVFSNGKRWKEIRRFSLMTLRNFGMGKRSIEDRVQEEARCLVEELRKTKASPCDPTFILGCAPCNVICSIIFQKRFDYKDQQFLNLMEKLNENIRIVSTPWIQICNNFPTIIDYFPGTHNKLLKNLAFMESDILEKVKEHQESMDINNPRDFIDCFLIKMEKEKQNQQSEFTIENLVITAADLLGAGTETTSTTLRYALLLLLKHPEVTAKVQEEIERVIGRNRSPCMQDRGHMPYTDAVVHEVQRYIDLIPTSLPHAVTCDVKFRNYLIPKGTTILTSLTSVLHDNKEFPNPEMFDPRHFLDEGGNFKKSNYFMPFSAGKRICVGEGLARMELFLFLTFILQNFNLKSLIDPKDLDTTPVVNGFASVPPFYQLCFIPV
Experimental: as §1, §2, §3, §4, §5

C57BL/6J mice = assay: cocaine-induced hyperlocomotion assay; assay type: in vivo, mouse; conditions: 1 mg/kg ip
Experimental: The experiment was conducted in adherence to the European Communities Council Directive (86/609/ECC) and Spanish regulations (BOE 252/34367-91, 2005) for the use of laboratory animals. The assay was performed according to a previously reported method[57] using 3 month old male mice with C57BL/6J background, and 8 mice were used for each experimental condition. All mice were handled and habituated to the injection procedures once per day for 5 days prior to behavioral testing. Experiments were carried out between 8:00 and 20:00, and the animals were acclimated to the experimental room for 30 min each day. Performance in the open field was recorded by a computer-based video tracking system (Smart v2.5, Panlab, Barcelona, Spain). Four open fields (50 × 50 × 50 cm, Panlab) with gray backgrounds were used, and the maximum light intensity in the center of the open field was 100 lux. Animals received a dose of 26 (1 mg/kg, ip) in a volume of 20 mL/kg of sterile saline as the vehicle, 15 min prior to a dose of cocaine (20 mg/kg, sc). Five min after cocaine injection, animals were placed in the open field and locomotion was measured at […] along a 30-min period of analysis. Horizontal locomotion was measured as total distance traveled (cm).

[1] = tested on: reserpinized C57BL/6 mice; assay: locomotor activity in reserpinized mice; assay type: in vivo, mouse
Experimental: The study was carried out in male C57BL/6 wild-type (22–25 g) mice that were acclimatized for 5 days. Animals were randomized based on body weight into six groups (G1 to G6), ten animals per group (n = 10), being group G1 the naïve control group. Animals were fed with standard diet ad libitum. Animals were dosed with subcutaneous administration of reserpine (2.5 mg/kg in DMSO/saline) and after 20 h they were treated with a vehicle (10 mL/kg, po), compound 26 (30 mg/kg, po), L-DOPA (100 or 400 mg/kg, ip) + carbidopa (100 mg/kg, ip) and/or their combination, as indicated in Figure 7. The vehicle employed for compound 26 administration was 5% NMP + 5% solutol HS-15 + 90% normal saline. L-DOPA and carbidopa were administered 30 min prior to start of locomotor activity recording. Compound 26 was administered and 15 min later, mice were placed in the locomotor activity cage to measure the locomotor activity for 60 min (total distance travelled) using ALL Maze version 0.5 automated software enabled with video tracking system. After the activity sessions, raw data were reduced using ALL Maze 5.0 software and Microsoft Excel. Statistical analysis was done with GraphPad Prism-5 using one way ANOVA followed by Dunnett’s test/Tukey’s post hoc test and/or two-way ANOVA followed by Bonferroni post hoc test. Data were considered statistically significant, if P value was less than 0.05.

[2] = percentage of inhibition at 10 μM

T1 sequence (Q12809 whole entry): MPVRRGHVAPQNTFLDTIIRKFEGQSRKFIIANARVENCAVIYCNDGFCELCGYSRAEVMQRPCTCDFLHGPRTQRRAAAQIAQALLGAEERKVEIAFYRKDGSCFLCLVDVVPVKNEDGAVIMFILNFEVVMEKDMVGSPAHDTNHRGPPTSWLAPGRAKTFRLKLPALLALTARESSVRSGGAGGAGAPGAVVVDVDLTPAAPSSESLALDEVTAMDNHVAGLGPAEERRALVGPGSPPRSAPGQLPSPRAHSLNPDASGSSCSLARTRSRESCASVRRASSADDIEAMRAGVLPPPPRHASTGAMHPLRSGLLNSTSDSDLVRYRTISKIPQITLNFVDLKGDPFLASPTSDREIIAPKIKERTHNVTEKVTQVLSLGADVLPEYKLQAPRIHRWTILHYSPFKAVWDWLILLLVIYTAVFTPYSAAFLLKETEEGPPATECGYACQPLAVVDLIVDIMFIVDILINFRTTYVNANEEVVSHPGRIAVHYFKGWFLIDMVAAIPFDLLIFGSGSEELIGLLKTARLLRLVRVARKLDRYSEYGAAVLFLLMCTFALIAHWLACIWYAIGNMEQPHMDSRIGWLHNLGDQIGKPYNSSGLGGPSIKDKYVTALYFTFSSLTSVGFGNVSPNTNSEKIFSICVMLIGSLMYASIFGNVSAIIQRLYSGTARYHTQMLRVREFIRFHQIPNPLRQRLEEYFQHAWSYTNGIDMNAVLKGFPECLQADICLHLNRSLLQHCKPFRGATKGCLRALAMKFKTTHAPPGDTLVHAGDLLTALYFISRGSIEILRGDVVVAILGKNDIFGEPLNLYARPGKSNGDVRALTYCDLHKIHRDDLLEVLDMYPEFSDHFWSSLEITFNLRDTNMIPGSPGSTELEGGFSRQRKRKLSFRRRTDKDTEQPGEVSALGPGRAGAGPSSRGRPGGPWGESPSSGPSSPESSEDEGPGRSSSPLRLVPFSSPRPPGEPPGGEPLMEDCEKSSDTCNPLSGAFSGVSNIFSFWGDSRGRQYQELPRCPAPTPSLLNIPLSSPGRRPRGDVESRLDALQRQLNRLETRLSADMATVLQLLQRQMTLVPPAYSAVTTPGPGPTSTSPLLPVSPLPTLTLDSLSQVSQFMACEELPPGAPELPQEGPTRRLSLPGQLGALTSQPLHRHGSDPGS

CYP2C9 (%) (CYP2C9; [2])	CYP2C19 (%) (CYP2C19; [2])	melting point [°C]	SMILES	hERG inhibition (%) (hERG potassium channel)	mouse serum stability (%) (stability in mouse serum)	CYP2C9 (%) (CYP2C9; Table S1, concentration not given)	IC50 (CYP2C19) [µM]	effect on cocaine-induced hyperlocomotion (C57BL/6J mice; 15 min before cocaine 20 mg/kg sc)	intrinsic locomotor activity, compound alone (C57BL/6J mice; no cocaine)	adverse effects observed in the animals ([1]; after oral dose administration, 30 mg/kg)	effect on locomotor activity in combination with L-DOPA ([1]; reserpine 2.5 mg/kg sc, 26 30 mg/kg po plus L-DOPA 100 or 400 mg/kg ip)	recovery of decreased locomotor activity, substance alone ([1]; reserpine 2.5 mg/kg sc, 26 30 mg/kg po, L-DOPA 100 or 400 mg/kg ip)
–	–	–	O=Cc1ccc(-c2ccccc2OCF)cc1 [Compound 3, 2′-(Fluoromethoxy)[1,1′-biphenyl]-4-carbaldehyde]	11 ± 2	50	inactive	6.53 ± 1.12	–	–	–	–	–
38 ± 3	37 ± 2	144 to 145	CS(=N)(=O)c1ccc(-c2ccccc2OCF)cc1 (centres unmarked) [Compound 26, 2-(Fluoromethoxy)-4′-(S-methanesulfonimidoyl)-1,1′-biphenyl]	21	93	–	–	potentiated the hyperlocomotion induced by cocaine; also recorded: enhanced cocaine (20 mg/kg, sc)-induced hyperlocomotion	no intrinsic locomotor activity	no sign of adverse effects	moderate synergistic effect	small recovery of decreased locomotor activity

From PMC9511493, “2-(Fluoromethoxy)-4′-(S-methanesulfonimidoyl)-1,1′-biphenyl (UCM-1306), an Orally Bioavailable Positive Allosteric Modulator of the Human Dopamine D1 Receptor for Parkinson’s Disease” (Journal of Medicinal Chemistry, 2022)
